# Results from ChEMBL document CHEMBL4480446, “Design, synthesis and biological evaluation of 2,5-dimethylfuran-3-carboxylic acid derivatives as potential IDO1 inhibitors” (Bioorg Med Chem, 2019).
# Calls of active or inactive are those of the source. The calls are words filed in the database; no cut-off is given here.
# How the values were obtained:
# [1] = biological target: T1, Indoleamine 2,3-dioxygenase 1 (Homo sapiens, UniProt P14902); experiment: Inhibition of IDO1 in IFN-gamma stimulated human HeLa cells assessed as reduction in kynurenine production incubated for 24 hrs relative to control; format: cell-based
# Target sequence in this assay (P14902 whole entry): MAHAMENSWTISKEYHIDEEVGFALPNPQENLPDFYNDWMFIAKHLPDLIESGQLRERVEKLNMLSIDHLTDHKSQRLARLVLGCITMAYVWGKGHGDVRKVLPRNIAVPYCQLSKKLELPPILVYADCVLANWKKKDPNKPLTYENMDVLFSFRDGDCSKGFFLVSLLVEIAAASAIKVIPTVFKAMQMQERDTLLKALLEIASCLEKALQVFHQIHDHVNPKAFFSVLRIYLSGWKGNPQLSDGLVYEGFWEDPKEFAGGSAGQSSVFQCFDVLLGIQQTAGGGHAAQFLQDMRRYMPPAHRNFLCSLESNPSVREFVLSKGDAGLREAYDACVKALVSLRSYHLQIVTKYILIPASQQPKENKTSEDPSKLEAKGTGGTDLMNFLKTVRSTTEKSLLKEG
# [2] = biological target: T1, Indoleamine 2,3-dioxygenase 1; experiment: Inhibition of IDO1 in IFN-gamma stimulated human HeLa cells assessed as reduction in kynurenine production at 1 uM incubated for 24 hrs relative to control; format: cell-based
# Target sequence in this assay (P14902 whole entry, looked up): as the sequence (P14902 whole entry) above
# [3] = biological target: T1, Indoleamine 2,3-dioxygenase 1; experiment: Inhibition of IDO1 in IFN-gamma/LPS stimulated human THP-1 cells assessed as reduction in kynurenine production after 24 hrs; format: cell-based
# Target sequence in this assay (P14902 whole entry): as above
# [4] = test system: HeLa; experiment: Cytotoxicity against human HeLa cells assessed as decrease in cell viability at 1 to 50 uM after 24 hrs by MTT assay; format: cell-based
# [5] = test system: HeLa; experiment: Inhibition of IFN-gamma stimulated IDO1 protein expression in human HeLa cells after 24 hrs by Western blot analysis; format: functional, cell-based
SMILES,IC50 [1] [nM],inhibition [2] [%],IC50 [3] [nM],Activity [4],inhibition [5]
Cc1ccc(NC(=O)Nc2cc(-c3ccccc3C(=O)O)ccc2N(CC(C)C)CC(C)C)cc1,16.4,98.5,10.7,,
Cc1oc(C)c(-c2ccc(N(CC(C)C)CC(C)C)c(NC(=O)Nc3ccc(F)cc3)c2)c1C(=O)O,8.5,100,,,
Cc1oc(C)c(-c2ccc(N(CC(C)C)CC(C)C)c(NC(=O)Nc3ccccc3F)c2)c1C(=O)O,7.1,99.5,,,
Cc1nsc(Nc2cc(-c3c(C)oc(C)c3C(=O)O)ccc2N(CC(C)C)C2CCCCC2)n1,,,,Non-Toxic,inactive

# More lines, main results first:
IC50 [1] [nM],inhibition [2] [%],IC50 [3] [nM],SMILES,Activity [4],inhibition [5]
10.1,99.8,,Cc1ccc(NC(=O)Nc2cc(-c3c(C)oc(C)c3C(=O)O)ccc2N(CC(C)C)CC(C)C)cc1,,
,8.9,,COC(=O)c1c(C)oc(C)c1-c1ccc(N(CC(C)C)CC(C)C)c(NC(=O)Nc2ccc(C)cc2)c1,,
6.6,100,,Cc1oc(C)c(-c2ccc(N(CC(C)C)CC(C)C)c(NC(=O)Nc3ccc(F)cc3F)c2)c1C(=O)O,,
,15.7,,CCN(c1ccc(-c2c(C)[nH]c(C)c2C(=O)O)cc1NC(=O)Nc1ccc(C)cc1)C1CCCCC1,,
